# Experimental data taken from US12357623B2, “Method for treating a disease or condition using a pyrazole compound or formulation thereof” (Rigel Pharmaceuticals, Inc., priority 2021, dated 2025).
# Where a name gives a salt, the structure may show the parent alone.
# Experiments:
# [1] = Physical and chemical stability of salts of compound I-18; assay type: physicochemical; settings: for Area (%) of peak at RRT 1.00: main peak; for Area (%) of peak at RRT 1.17: peak corresponds to I-1 formed by hydrolysis; for Initial purity: before storage
# Protocol: The physical and chemical stability of the K salt, Arginine salt, Choline salt and Tris salt were evaluated under conditions of 25° C./60% RH and 40° C./75% RH for 1 week. Each sample was added into 3 mL glass vials, sealed by parafilm with several holes, and kept under tested condition. After one week, samples was taken for XRPD and HPLC purity test.
# [2] = Hygroscopicity evaluation (DVS) of salts of compound I-18; assay type: physicochemical; settings: 25° C.
# Protocol: To investigate the solid form stability as a function of humidity, DVS isotherm plot of the K salt, Arginine salt, Choline salt and Tris salt were collected at 25° C. between 0 and 95% RH.
# [3] = Pharmacokinetics in cynomolgus monkeys (co-crystal and spray-dried dispersion capsules); assay type: in vivo; settings: male cynomolgus monkeys (n=3/group), capsule equivalent to 25 mg compound I-1
# Protocol: Two groups of male cynomolgus monkeys (n=3/group) were administered test articles in a 3-way crossover design as indicated in Table 2. The washout period between doses was 3-4 days. Test article capsules were prepared such that each capsule contained an equivalent of 25 mg of free base compound I-1. The organic stock solution of compound I-1 was prepared at a concentration of 5 mg/ml using TPGS/PEG400/PG, and was diluted with apple juice within 1 hour of dosing (PO) at 1 part stock solution to 3 parts apple juice.
# FIGS. 11-14 provide graphs of the plasma concentrations obtained from administering the co-crystal formulations of compound I-1 to monkeys. And Table 3 provides pharmacokinetic (PK) data for the co-crystal formulations, including the average area under the curve (AUC) and percent bioavailability.
# FIG. 19 provides PK data for one embodiment of the disclosed spray-dried formulation, and the organic/juice formulation.
# [4] = 25° C./60% RH, 1 week, listed as arginine salt
# [5] = 40° C./75% RH, 1 week, listed as arginine salt
# [6] = Initial, listed as arginine salt
# [7] = 25° C./60% RH, 1 week, listed as choline salt
# [8] = 25° C./60% RH/1 week, listed as Choline salt
# [9] = 40° C./75% RH, 1 week, listed as choline salt
# [10] = Initial, listed as choline salt
structure (smiles),measurement,setting,value
"CCO[C@H]1CC[C@H](n2cc(NC(=O)c3csc(-c4cnn(C(C)OP(=O)(O)O)c4)n3)c(-c3nc(F)ccc3F)n2)CC1 (some centres unmarked) [Compound I-110, 1-(4-(4-((3-(3,6-difluoropyridin-2-yl)-1-((1r, 4r)-4-ethoxycyclohexyl)-1H-pyrazol-4-yl)carbamoyl)thiazol-2-yl)-1H-pyrazol-1-yl)ethyl dihydrogen phosphate arginine salt]",Area (%) of peak at RRT 1.13,"[1]; 25° C./60% RH, 1 week",0.06%
same,Area (%) of peak at RRT 0.77,[1]; [4],0.03%
same,Area (%) of peak at RRT 1.35,[1]; [4],0.06%
same,Area (%) of peak at RRT 1.45,[1]; [4],0.50%
same,Area (%) of peak at RRT 1.71,[1]; [4],0.74%
same,Area (%) of peak at RRT 1.73,[1]; [4],0.61%
same,HPLC purity change,[1]; [4],slight purity decrease
same,Area (%) of peak at RRT 1.00,[1]; [4],95.31%
same,Area (%) of peak at RRT 1.17,[1]; [4],2.68%
same,Form change (XRPD),"[1]; 25° C./60% RH/1 week, listed as Arginine salt",no form change and No
same,Area (%) of peak at RRT 1.13,"[1]; 40° C./75% RH, 1 week",0.06%
same,Area (%) of peak at RRT 0.77,[1]; [5],0.04%
same,Area (%) of peak at RRT 1.35,[1]; [5],0.11%
same,Area (%) of peak at RRT 1.45,[1]; [5],0.47%
same,Area (%) of peak at RRT 1.71,[1]; [5],0.73%
same,Area (%) of peak at RRT 1.73,[1]; [5],0.60%
same,HPLC purity change,[1]; [5],slight purity decrease
same,Area (%) of peak at RRT 1.00,[1]; [5],95.50%
same,Area (%) of peak at RRT 1.17,[1]; [5],2.48%
same,Form change (XRPD),"[1]; 40° C./75% RH/1 week, listed as Arginine salt",no form change and No
same,Area (%) of peak at RRT 1.35,[1]; Initial,<0.03%
same,Area (%) of peak at RRT 0.77,[1]; [6],<0.03%
same,Area (%) of peak at RRT 1.13,[1]; [6],<0.03%
same,Area (%) of peak at RRT 1.45,[1]; [6],0.44%
same,Area (%) of peak at RRT 1.71,[1]; [6],0.73%
same,Area (%) of peak at RRT 1.73,[1]; [6],<0.53%
same,Area (%) of peak at RRT 1.00,[1]; [6],95.91%
same,Area (%) of peak at RRT 1.17,[1]; [6],2.39%
same,Initial purity,[1]; listed as Arginine salt,95.91 area %
same,water uptake (DVS),[2]; at 80% RH,1.43%
same,hygroscopicity (DVS),[2]; from water uptake at 80% RH,slight hygroscopic
"CCO[C@H]1CC[C@H](n2cc(NC(=O)c3csc(-c4cnn(C(C)OP(=O)(O)O)c4)n3)c(-c3nc(F)ccc3F)n2)CC1 (some centres unmarked) [Compound I-111, 1-(4-(4-((3-(3,6-difluoropyridin-2-yl)-1-((1r, 4r)-4-ethoxycyclohexyl)-1H-pyrazol-4-yl)carbamoyl)thiazol-2-yl)-1H-pyrazol-1-yl)ethyl dihydrogen phosphate choline salt]",Area (%) of peak at RRT 0.77,[1]; [7],0.04%
same,Area (%) of peak at RRT 1.35,[1]; [7],0.10%
same,Area (%) of peak at RRT 1.45,[1]; [7],0.07%
same,Area (%) of peak at RRT 1.71,[1]; [7],0.05%
same,Area (%) of peak at RRT 1.73,[1]; [7],0.46%
same,HPLC purity change,[1]; [7],no HPLC purity decrease
same,Area (%) of peak at RRT 1.00,[1]; [7],98.66%
same,Area (%) of peak at RRT 1.17,[1]; [7],0.58%
same,Form change (XRPD),[1]; [8],no form change and No
same,Purity/Initial purity,[1]; [8],100.0%
same,Area (%) of peak at RRT 0.77,[1]; [9],0.04%
same,Area (%) of peak at RRT 1.35,[1]; [9],0.14%
same,Area (%) of peak at RRT 1.45,[1]; [9],0.11%
same,Area (%) of peak at RRT 1.71,[1]; [9],0.08%
same,Area (%) of peak at RRT 1.73,[1]; [9],0.46%
same,HPLC purity change,[1]; [9],a purity decrease was observed
same,Area (%) of peak at RRT 1.00,[1]; [9],97.81%
same,Area (%) of peak at RRT 1.17,[1]; [9],1.31%
same,Form change (XRPD),"[1]; 40° C./75% RH/1 week, listed as Choline salt",no form change and No
same,Area (%) of peak at RRT 1.35,[1]; Initial,<0.03%
same,Area (%) of peak at RRT 0.77,[1]; [10],0.03%
same,Area (%) of peak at RRT 1.13,[1]; [10],0.06%
same,Area (%) of peak at RRT 1.45,[1]; [10],0.06%
same,Area (%) of peak at RRT 1.71,[1]; [10],0.06%
same,Area (%) of peak at RRT 1.73,[1]; [10],0.33%
same,Area (%) of peak at RRT 1.00,[1]; [10],98.70%
same,Area (%) of peak at RRT 1.17,[1]; [10],0.75%
same,Initial purity,[1]; listed as Choline salt,98.70 area %
same,water uptake (DVS),"[2]; at 70% RH, listed as Choline salt",3.66%
same,water uptake (DVS),"[2]; at 95% RH, listed as Choline salt",32.4%
"CCO[C@H]1CC[C@H](n2cc(NC(=O)c3csc(-c4cn[nH]c4)n3)c(-c3nc(F)ccc3F)n2)CC1.O=P(O)(O)O [Compound I-104, N-(3-(3,6-difluoropyridin-2-yl)-1-((1r, 4r)-4-ethoxycyclohexyl)-1H-pyrazol-4-yl)-2-(1H-pyrazol-4-yl)thiazole-4-carboxamide phosphate]",percent bioavailability (% F) of compound I-1,[3],7.9%
